According to article PMC8522962 (Reproductive Toxicology (Elmsford, N.y.), 2021):
“Also recorded” adds a separate entry of the source.

Key:
[1] = EMA ICH S5 (R3) guidelines; cited from earlier work
[2] = system: T/Bra::GFP mouse gastruloids; assay: Mouse gastruloid assay, T/Bra::GFP reporter line; format: cell-based; settings: for adverse effects on reporter gene expression (words): mouse system, up to the highest concentration levels
[3] = system: RUES2-GLR human gastruloids; assay: Human gastruloid assay, RUES2-GLR line; settings: for Human Gastruloid LOAEL: lowest observable adverse effect level; for overall outcome in the human gastruloid model: summary statements; for adverse effects on reporter gene expression (words): up to the highest concentration levels
mouse gastruloids = assay: Mouse gastruloid assay, both lines or line not specified; format: cell-based; settings: for mouse Gastruloid LOAEL: lowest observable adverse effect level; for overall outcome in the mouse gastruloid model: summary statements
rats = settings: read-out: rat in vivo LOAEL Cmax; maximum plasma concentration at LOAEL; cited from earlier work
rabbits = settings: cited from earlier work
[4] = system: differentiation of mouse embryonic stem cells (ES-D3) into beating cardiomyocytes; assay: Mouse embryonic stem cell test; format: cell-based; settings: for mEST ID50: half maximal inhibitory concentration of cardiomyocyte differentiation
hiPSC-derived EBs = assay: Human 3D in vitro model, hiPSC-derived embryoid bodies; format: cell-based; settings: threshold concentration where 20 % of teratogenicity was detected by differential expression
[5] = system: E14Tg2A mouse gastruloids; assay: Mouse gastruloid assay, E14Tg2A line; format: cell-based
plasma protein = settings: cited from earlier work; for free fractions of unbound compound: human therapeutic concentrations

SMILES: COc1ccccc1Oc1c(NS(=O)(=O)c2ccc(C(C)(C)C)cc2)nc(-c2ncccn2)nc1OCCO [Bosentan]
- Teratogenicity classification [1]: Positive
- morphology vs controls ([2]; 4 μM and 8 μM): larger and more elongated than controls
- GFP expression ([2]; cultured in the presence of bosentan (4-18 μM)): robust GFP expression that was localised to the pole of the elongations
- germ layer representation and axial elongation ([3]; 4 μM): maintain representation of all three germ layers and axial elongation morphogenesis
- size vs DMSO ([3]; 4 μM): marginally smaller than DMSO-treated gastruloids
- SOX17 expression ([3]; 18 μM): lose expression of SOX17
- human gastruloids showing low levels of SOX17 expression, on average ([3]; 18 μM, 72 h, vehicle controls 88 %): 33%
- Human Gastruloid LOAEL ([3]; 72 h): 18 µM
- overall outcome in the human gastruloid model [3]: potentially teratogenic
- size and morphogenesis vs controls (mouse gastruloids; 4–18 μM, mouse gastruloids): slightly larger than controls, but did not appear to be defective in morphogenesis
- Cmax (rats): 30 µM
- effects in rabbits in vivo (rabbits): no effects
- mEST prediction [4]: false negative
- mEST ID50 [4]: 68.2 µM
- hiPSC- derived EBs TC20 (hiPSC-derived EBs): 13 µM

SMILES: CC(C)Cc1ccc(C(C)C(=O)O)cc1 (centres unmarked) [Ibuprofen]
- GFP expression ([2]; all ibuprofen treatments tested (63-250 μM)): marked increase in GFP expression
- SOX2 expression vs vehicle-only controls ([3]; 63 μM): marginally elevated
- size and circularity ([3]; 63 μM and 250 μM): reduced size and increased circularity
- Human Gastruloid LOAEL ([3]; 72 h): 63 µM
- growth and morphology vs vehicle-only controls (mouse gastruloids; 63−250 μM, 0.12 % DMSO control): no consistent effect on growth or morphology
- mouse Gastruloid LOAEL (mouse gastruloids; 120 h): 63 µM
- mouse Gastruloid LOAEL (mouse gastruloids; 120 h, listed as ibuprofen): 63 µM
- overall outcome in the mouse gastruloid model (mouse gastruloids): adverse effects on gene expression
- Cmax (rats): 1600 µM
- effects in rabbits in vivo (rabbits): no effects
- mEST prediction [4]: negative
- hiPSC- derived EBs TC20 (hiPSC-derived EBs): 855 µM

SMILES: CC1(C)S[C@@H]2[C@H](NC(=O)Cc3ccccc3)C(=O)N2[C@H]1C(=O)O [Penicillin G]
- morphological changes vs control ([5]; 63 μM, 1 mM and 2 mM, water control): small morphological changes resulting in slightly larger, more elongated or less circular gastruloids
- adverse effects on reporter gene expression (words) ([2]; listed as Penicillin): No observable adverse effects on reporter gene expression
- adverse effects on reporter gene expression (words) ([2]; listed as penicillin G): did not cause any adverse effects on reporter gene expression
- effect on size ([3]; 63 μM and 1 mM): minimal effects of increased size
- adverse effects on reporter gene expression (words) ([3]; human system, listed as Penicillin): No observable adverse effects on reporter gene expression
- adverse effects on reporter gene expression (words) ([3]; human system, listed as penicillin G): did not cause any adverse effects on reporter gene expression

SMILES: O=C1NC(=O)C(c2ccccc2)(c2ccccc2)N1 [Phenytoin]
- Teratogenicity classification [1]: Positive
- size and morphology vs vehicle-only controls ([5]; 1−20 μM, 0.1 % DMSO control): not significantly different compared to the vehicle-only controls in terms of size and morphology
- size and circularity ([2]; 20 μM): significantly smaller and more circular
- T/Bra::GFP expression ([2]; > 5 μM): negatively correlated with increasing concentrations of phenytoin
- area ([3]; 20 μM, One-Way ANOVA α = 0.05): significantly reduced area
- proportions and patterns of gene expression ([3]; 1−20 μM): maintained proportions and patterns of gene expression that were comparable to controls
- overall outcome in the human gastruloid model [3]: falls below the limit of detectable effect
- overall outcome in the mouse gastruloid model (mouse gastruloids): adverse effects on gene expression
- Cmax (rats): 106 µM
- plasma protein binding (plasma protein): 90%
- free fractions of unbound compound (plasma protein): 3 to 9 µM
- mEST ID50 [4]: 0.39 µM
- hiPSC- derived EBs TC20 (hiPSC-derived EBs): < 8 µM

SMILES: CC1=C(/C=C/C(C)=C/C=C/C(C)=C/C(=O)O)C(C)(C)CCC1 [Retinoic Acid, All-trans retinoic acid]
- Teratogenicity classification [1]: Positive
- T/Bra::GFP expression ([2]; all ATRA treatments (0.4-100 nM), 120 h): apparent loss of T/Bra::GFP expression
- germ layer representation and axial elongation ([3]; 0.4 nM, 72 h): maintain an equivalent representation of the three germ layers and underwent partial axial elongation
- size and circularity vs controls ([3]; 0.4 nM, 72 h): significantly smaller and more circular than controls
- axial extension and SOX2 expression ([3]; 33 nM, 72 h): completely inhibited axial extension and promoted the over-expression of SOX2
- BRA expression ([3]; 33 nM, 72 h, three replicates): no detectable BRA expression
- human gastruloids expressing SOX17 at low levels, on average ([3]; 33 nM, 72 h, DMSO controls 88 %): 42%
- Human Gastruloid LOAEL ([3]; 72 h): 0.0004 µM
- overall outcome in the human gastruloid model [3]: similarly teratogenic
- effect on axial extension (mouse gastruloids; 0.4 nM, 120 h, both lines): significant inhibition of axial extension
- effect on size and shape (mouse gastruloids; 33 nM, 100 nM, 120 h, both lines): drastically reduced size, and gastruloids assumed a spherical shape without any axial elongation
- dosages likely to be cytotoxic or cytostatic in the mouse system (mouse gastruloids; 120 h): > 0.4 nM
- mouse Gastruloid LOAEL (mouse gastruloids; 120 h): 0.0004 µM
- overall outcome in the mouse gastruloid model (mouse gastruloids): similarly teratogenic; also recorded: adverse morphological effects
- Cmax (rats): 1 µM
- mEST ID50 [4]: 0.0037 µM
- mEST ID50 ([4]; listed as ATRA): 0.003 µM

SMILES: O=C1CCC(N2C(=O)c3ccccc3C2=O)C(=O)N1 (centres unmarked) [Thalidomide]
- Teratogenicity classification [1]: Positive
- GFP expression ([2]; increasing concentrations (100 μM)): reduced GFP expression
- SOX2 expression ([3]; 0.4 μM and 100 μM): clearly increased SOX2 expression
- gastruloid size ([3]; 0.4 μM and 100 μM): significant decreases in gastruloid size
- Human Gastruloid LOAEL ([3]; 72 h): 0.4 µM
- overall outcome in the human gastruloid model [3]: potentially teratogenic
- size and morphology (mouse gastruloids; 0.4−100 μM, both lines): not significantly altered in either size or morphology
- overall outcome in the mouse gastruloid model (mouse gastruloids): adverse effects on gene expression
- Cmax (rats): 19 µM
- mEST prediction [4]: false negative
- mEST inhibition of cardiomyocytes ([4]; concentrations up to 2 mM): did not show any inhibition of cardiomyocytes
- hiPSC- derived EBs TC20 (hiPSC-derived EBs): < 0.1 µM

SMILES: CCCC(CCC)C(=O)O [Valproic Acid]
- Teratogenicity classification [1]: Positive
- GFP expression ([2]; 4 μM): maintained localised GFP expression
- size, elongation and GFP expression ([2]; concentrations higher than 4 μM): smaller gastruloids, impaired elongation and a loss of GFP expression
- effect on size ([3]; 4 μM, human gastruloids): decrease in size
- tolerability ([3]; 4 μM, human gastruloids): fairly well tolerated
- SOX2 and BRA reporter expression vs 0.2 % DMSO controls ([3]; 333 μM): very low SOX2 expression and elevated BRA expression
- axial elongation morphogenesis ([3]; 333 μM): failed to undergo axial elongation morphogenesis
- toxicity judged from decrease in gastruloid size ([3]; 1 mM, human system): seem to induce toxicity
- Human Gastruloid LOAEL ([3]; 72 h): 333 µM
- overall outcome in the human gastruloid model [3]: similarly teratogenic
- tolerability (mouse gastruloids; 4 μM, mouse gastruloids): fairly well tolerated
- toxicity judged from decrease in gastruloid size (mouse gastruloids; 1 mM, mouse system): seem to induce toxicity
- effect on shape and size (mouse gastruloids; concentrations higher than 333 μM, mouse gastruloids): clearly spherical mouse gastruloids
- mouse Gastruloid LOAEL (mouse gastruloids; 120 h): 333 µM
- overall outcome in the mouse gastruloid model (mouse gastruloids): similarly teratogenic; also recorded: adverse morphological effects
- Cmax (rats): 1600 µM
- plasma protein binding (plasma protein): ≥ 90%
- free fractions of unbound compound (plasma protein): 0.3−0.5 mM
- mEST ID50 [4]: 589 µM
- hiPSC- derived EBs TC20 (hiPSC-derived EBs): 85 µM
